Laboratory results published in patent US4091211A, “Cephalosporins” (Hoffmann-La Roche Inc., priority 1974, dated 1978).
Structures can show the parent of a compound that is named as a salt.

How the values were obtained:
[1] = test system: Staphylococcus aureus Schoch (Penicillin-sensitive); experiment: antimicrobial activity, CD50 in the mouse upon subcutaneous injection, Staphylococcus aureus Schoch; type: in vivo
Description: (§1) The results represent CD50 values in the mouse upon subcutaneous injection. In the table, compound A is (7R)-3- [[(1,4,5,6-tetrahydro-4-ethyl-5,6-dioxo-as-triazin-3-yl)-thio]methyl]-7-[2-(5-oxo-1,2,3-oxadiazolidin-3-yl)-acetamido]-3-cephem-4-carboxylic acid sodium salt and compound B is (7R)-3- [[(1,4,5,6-tetrahydro-4-ethyl-5,6-dioxo-as-triazin-3-yl)-thio]methyl]-7-[2(1-H-tetrazol-1-yl)-acetamido]-3-cephem-4-carboxylic acid sodium salt.

Escherichia coli 1346 = experiment: antimicrobial activity, CD50 in the mouse upon subcutaneous injection, Escherichia coli 1346; type: in vivo
Description: as §1

[2] = test system: Staphylococcus aureus 887 (Penicillin-sensitive); experiment: antimicrobial activity, CD50 in the mouse upon subcutaneous injection, Staphylococcus aureus 887; type: in vivo
Description: as §1

[3] = acute toxicity (LD50 i.v. in the mouse); conditions: in vivo, iv

Compound | CD50 [1] | CD50 (Escherichia coli 1346) | CD50 [2] | LD50 ([3]; i.v. in the mouse, acute toxicity) | LD50 ([3]; mouse)
CCn1c(SCC2=C(C(=O)O)N3C(=O)[C@@H](NC(=O)C[n+]4cc([O-])on4)[C@H]3SC2)n[nH]c(=O)c1=O [A, sodium salt] | 0.25 mg/kg | 0.38 mg/kg | 5.5 mg/kg | 2000 to 4000 mg/kg | –
CCn1c(SCC2=C(C(=O)O)N3C(=O)[C@@H](NC(=O)Cn4cnnn4)[C@H]3SC2)n[nH]c(=O)c1=O [B, (7R)-3-[[(1,4,5,6-tetrahydro-4-ethyl-5,6-dioxo-as-triazin-3-yl)-thio]methyl]-7-[2(1-H-tetrazol-1-yl)-acetamido]-3-cephem-4-carboxylic acid sodium salt] | 0.6 mg/kg | 0.9 mg/kg | 3.2 mg/kg | – | 1000 to 2000 mg/kg
